From US20210317090A1, “AMINO ACID DEPLETION AGENTS AS ANTIPROLIFERATIVE AGENTS” (University of Central Florida Research Foundation, Inc., priority 2018, published 2021)
Read-outs that look alike come from different tables or passages of the source.

Key:
CHO K1 cells = test: cells; type: cell-based, Chinese hamster; settings: for EC50: Cricetulus griseus, Ant-44 0.5 μM
Experimental: Various embodiments involve the concept that a non-toxic PTI agent would inhibit the uptake of the cytotoxic polyamine conjugate Ant-44 (11) and rescue cells from Ant-44 induced toxicity. For example, using the IC50 dose of Ant-44, PTIs could be identified by measuring a compound's ability to block Ant-44 entry and rescue cells back to >90% viability. […] This toxic dose of Ant-44 was kept constant throughout the assay, while the candidate PTI compound was added in increasing concentrations up to its MTD.
Compounds (9 and 10) were tested at 5 μM and 7 μM. CHO K1 cells were treated in a 96-well plate with a toxic dose of Ant-44 (2.4 μM) alone and dosed with the candidate compounds (at 5 μM and 7 μM) and incubated for 48 h at 37° C.
To further explore this effect, development of various embodiments included modifying an original screen to use a lower dose of Ant-44 (0.5 μM) to improve the dose range of 9 and 10 that could be tested. In this regard, Ant-44 was dosed at 0.5 μM alone and in combination with increasing doses of compounds 9 (1666.177) and 10 (1666.255) and the CHO K1 cells were incubated for 48 h at 37° C., and the results are shown in FIG. 5. The red line represents the % cell viability of the Ant-44 only control. The Ant44 potentiation assay EC50 value is defined as the concentration of the candidate compound required to decrease the cell viability to half that of the Ant-44 only control. Both compounds 9 and 10 were effective at decreasing cell viability, when used in combination with Ant-44 in a dose dependent fashion.
FIG. 5 is an example according to various embodiments, illustrating potentiation of Ant-44 toxicity by compounds 9 and 10 in CHO K1 cells. Cells were incubated for 48 h at 37° C. with the respective compound and a fixed concentration of cytotoxic Ant-44 (0.5 μM). A 1 mM AG solution was incubated with the CHO K1 cells for 24 h prior to the addition of candidate compound. This was necessary to protect Ant-44 from the amine oxidases present in the media containing fetal bovine serum. […] Both compounds are nontoxic at the highest concentration tested (5 μM).

L3.6pl cells = test: Analytes in supernatant of L3.6pl cells (LCMS); type: cell-based, human; settings: 72 h
Excerpt: One way to affect both spermidine and spermine pools is to decrease methionine supply, which in turn would inhibit the formation of the decarboxylated S-adenosylmethionine needed to provide the aminopropyl fragment required for spermidine and spermine synthesis. Since methionine, leucine and phenylalanine all use the LAT1/SLC3A2 transporter to enter cells, it was hypothesized that 10 was inhibiting LAT-1 mediated amino acid import. To test this hypothesis, the development of various embodiments involved measuring the amino acid concentrations in the supernatants of cells incubated with compound 10 at 2 and 5 μM for 72 h.
This example illustrates aspects according to various embodiments pertaining to a 72 h experiment with Compound 10 in L3.6pl cells. Ten milliliters of a cell suspension containing L3.6pl human pancreatic cancer cells (50,000 cells/mL) and aminoguanidine ([…]) were placed in treated plastic Petri dishes (d=9 cm) and incubated overnight at 37° C. After 24 h, the cells were dosed with compound 10 at 2 μM, 5 μM, or 7 μM. (Note: Stock solutions of 10 at 2, 5, and 7 mM were dissolved in phosphate buffered saline (PBS) and were filtered through a 0.2 μm filter prior to use. The experiments were maintained with a total volume of 10.01 mL where 10 mL of the cell suspension was placed in a plastic dish and each compound or the equivalent PBS volume was added to make up the total volume 10.01 mL for each dish. For example, for the control experiment PBS (10 μL) was added to make up the total volume (10 mL+10 μL=10.01 mL). After 72 h incubation, the cells were collected first by pipetting off the supernatant containing floating dead cells from the culture dish as well as media and placing them into 15 mL tubes. The supernatant containing floating cells was centrifuged (4 min at 1,000 rpm). The cell-free supernatant (supernatant #1) was collected into a new 15 mL tube and quantified (˜8.6 mL) and was then stored frozen and was later quantified by LCMS to investigate the media composition of particular polyamine and amino acid analytes. The attached cells on the dish were washed with PBS (5 mL). The PBS wash was removed by suction and additional PBS (2 mL) was added and again suctioned off to provide twice-washed cells still adhered to the dish. Trypsin (2 mL) was then added to each dish and incubated (3-5 min) until all the cells were detached. Fresh media (8 mL) was added to quench the trypsin. The cell solutions were pipetted into separate 15 mL tubes and centrifuged (4 min at 1,000 rpm). The resulting supernatant was removed to provide a pellet. The pellet was suspended in PBS (10 mL) and was counted by a hemocytometer to provide cell counts for each experimental condition. The pellet was then centrifuged (4 min at 1,000 rpm) and the supernatant removed and the remaining pellet was quantified via protein and polyamine analysis.
This example illustrates aspects according to various embodiments pertaining to an LCMS Analysis. The respective supernatant (10 μL) was injected on a Thermo HPLC system equipped with PAL CTC plate sampler (96-well plate), Dionex Ultimate 3000 binary pump (flow rate at 0.25 mL/min), Dionex Ultimate 3000 thermostatted column compartment (temperature at 40° C.), Thermo Endura Mass Spectrometer (ESI source), using Thermo Scientific Accucore C18 (2.6 μm, 2.1×50 mm, 100 Å) column under a gradient of acetonitrile w/0.1% heptafluorobutyric acid (HFBA) in H2O w/0.1% HFBA from 2% at minute 0 to 60% at minute 5.0, to 99% at minute 6.5 held until minute 7.5 and then reduced back to 2% until minute 10 to re-equilibrate the column for the next injection. The peak area was measured and analyte amounts were calculated referring to analyte calibration curves. Analyte levels were adjusted with internal standard concentration for extraction efficiency. Peak height measurements were conducted referring to values obtained for standards of known concentrations. […]

## CC(C)CCN1CCN(C(CNCc2ccccc2)CC2CCCCC2)CC1CC(C)C.Cl.Cl.Cl (stereo not drawn) [Compound 10, Benzyl-{3-cyclohexyl-2-[3-isobutyl-4-(3-methyl-butyl)-piperazin-1-yl]-propyl}-amine trihydrochloride salt]
CHO K1 cells; CHO K1 cells
  times more effective at potentiating Ant-44 than compound 9: approximately 12.5 times
CHO K1 cells; CHO K1 cells, 48 h (FIG. 5), read-out: Ant-44 potentiation EC50
  EC50: 60 nM
CHO K1 cells; CHO cells, 48 h, read-out: Ant44 potentiation assay EC50
  EC50: 60 nM
L3.6pl cells; 2 μM
  Supernatant level Acetyl spermidine: 1649 ± 18 pmoles/mg protein
  Supernatant level Acetyl spermine: 49 ± 10 pmoles/mg protein
  Supernatant level Agmatine: 297 ± 163 pmoles/mg protein
  Supernatant level Arginine: 18396 ± 70 pmoles/mg protein
  Supernatant level Glutamic acid: 20231 ± 649 pmoles/mg protein
  Supernatant level Leucine: 15055 ± 1043 pmoles/mg protein
  Supernatant level Methionine: 17686 ± 2432 pmoles/mg protein
  Supernatant level Ornithine: 9249 ± 306 pmoles/mg protein
  Supernatant level Phenylalanine: 11954 ± 828 pmoles/mg protein
  Supernatant level Putrescine: 938 ± 70 pmoles/mg protein
  Supernatant level Spermidine: 131 ± 26 pmoles/mg protein
  Supernatant level Spermine: 2532 ± 406 pmoles/mg protein
L3.6pl cells; 5 μM
  Supernatant level Acetyl spermidine: 1706 ± 29 pmoles/mg protein
  Supernatant level Acetyl spermine: 36 ± 4 pmoles/mg protein
  Supernatant level Agmatine: 485 ± 176 pmoles/mg protein
  Supernatant level Arginine: 43243 ± 2047 pmoles/mg protein
  Supernatant level Glutamic acid: 34033 ± 540 pmoles/mg protein
  Supernatant level Leucine: 202092 ± 23817 pmoles/mg protein
  Supernatant level Methionine: 64036 ± 5454 pmoles/mg protein
  Supernatant level Ornithine: 15951 ± 118 pmoles/mg protein
  Supernatant level Phenylalanine: 160462 ± 18910 pmoles/mg protein
  Supernatant level Putrescine: 2224 ± 98 pmoles/mg protein
  Supernatant level Spermidine: 167 ± 32 pmoles/mg protein
  Supernatant level Spermine: 2690 ± 889 pmoles/mg protein
